{"source": "patent US12269901B2", "about": "“Peptide and use thereof” (ENSOL BIOSCIENCES, INC., priority 2019, dated 2025)", "key": {"IFN-γ": {"system": "IFN-γ", "test": "IFN-γ mRNA expression in anti-CD28-stimulated splenocytes (RT-PCR, relative to GAPDH)", "format": "cell-based", "settings": "splenocytes of diabetic NOD mice, 2 ng/ml anti-mouse CD28, 100 mM peptide, 3 hr", "procedure": "(§1) The end of the tail of the experimental animals prepared as in Example 2-1 was wounded once a week, and a drop of blood therefrom was measured for blood glucose levels using a glucometer (Roche, Accu-CHEK Performa). The blood glucose levels were confirmed to be “high” (600 mg/dL or more), the mice were subjected to cervical dislocation, and the spleen was extracted therefrom. A cell strainer (BD, 352350) was placed on a 50 ml tube, and the extracted spleen tissue was passed through the cell strainer using the plunger end of a syringe, after which the tube containing the strained cells was added with HBSS (Hanks' Balanced Salt solution) so that the cells were washed with water, followed by centrifugation (1,000 rpm, 5 min) to remove the supernatant. The cells were suspended with 1 ml of HBSS, added with 10 ml of 1×RBC lysis buffer (Ebioscience, 00-4333-57), mixed with gentle stirring, allowed to stand in ice for 5 min, and then centrifuged (1,000 rpm, 5 min) to remove the supernatant. The resulting cells were added with 10 ml of a RBC lysis buffer once more, allowed to stand in ice for 5 min, further centrifuged (1,000 rpm, 5 min) to remove the supernatant, and then washed two times with 10 ml of HBSS. After final centrifugation (1,000 rpm, 5 min), the cells were suspended with 1 ml of HBSS, 50 μl of the cells were diluted with a trypan blue solution at 1:1, and the number of cells was counted using a hemocytometer. […]\n(§2) Thereafter, the cells were centrifuged (1,000 rpm, 5 min) to remove the supernatant, lysed through pipetting with 5 ml of TRIzol (Invitrogen, 15596-018), and allowed to stand at room temperature for 5 min. […] RNA was eluted by adding 30 μl of DEPC-treated water and quantified.\n(§3) cDNA was synthesized through the experimental procedure for a cDNA synthesis kit (ELPISbio, EBT-1512) using […] of the quantified RNA. Then, in accordance with the procedure for a PCR (Polymerase Chain Reaction) kit (Solgent, SEF01-M50H), cDNA of each cytokine (IFN-γ, TNF-α, TGF-β1) and a housekeeping gene GAPDH for quantitative determination of changes in cytokine expression were amplified. […]"}, "TGF-β1": {"system": "TGF-β1", "test": "TGF-β1 mRNA expression in anti-CD28-stimulated splenocytes (RT-PCR, relative to GAPDH)", "format": "cell-based", "settings": "splenocytes of diabetic NOD mice, 2 ng/ml anti-mouse CD28, 100 mM peptide, 72 hr", "procedure": "as §1, §2, §3"}, "TNF-α": {"system": "TNF-α", "test": "TNF-α mRNA expression in anti-CD28-stimulated splenocytes (RT-PCR, relative to GAPDH)", "format": "cell-based", "settings": "splenocytes of diabetic NOD mice, 2 ng/ml anti-mouse CD28, 100 mM peptide, 3 hr", "procedure": "as §1, §2, §3"}, "[1]": {"system": "NOD/ShiLtJ mice with type 1 diabetes", "test": "Effect of lowering blood glucose levels in animals with type 1 diabetes", "format": "in vivo, mouse", "settings": "NOD mice with type 1 diabetes, 5 mg/kg SC every morning and evening, up to 14 days, two animals; negative control (PBS) continuously increased", "text": "(§4) The experimental animals were 8-week-old female NOD/ShiLtJ (Jackson Lab). NOD (Non-obese diabetic) mice are animal models of insulitis and type 1 diabetes. In these animals, it is known that type 1 diabetes occurs at 18 weeks of age on average and 90% of incidence thereof occurs by 30 weeks of age. All animals were housed under SPF barrier conditions. This study was approved by the Institutional Animal Care and Use Committee of Osong Medical Innovation Foundation Laboratory Animal Center (Kbio-IACUC-2018-066). The acclimation period was 1 week, and the light/dark cycle was 12 hr ([…]). The temperature was 20±2° C., and the relative humidity was 60 to 80%. Since the incidence of diabetes may be inhibited by intestinal microorganisms, water, the pH of which was adjusted to 2.8-3.2 using HCl, was supplied to the experimental animals.\nThe end of the tail of the experimental animals prepared above was wounded once a week and a drop of blood therefrom was measured for blood glucose levels using a glucometer (Roche, Accu-CHEK Performa). When the blood glucose levels were measured to be 250 mg/dL or more and the blood glucose levels remeasured on the third day thereafter was also 250 mg/dL or more, type 1 diabetes was considered to have occurred, and the experiment was conducted. […]"}, "[2]": {"system": "NOD/ShiLtJ mice with type 1 diabetes (insulitis)", "test": "Effect of inhibiting or reducing development of insulitis (insulitis score of pancreatic islets, H&E)", "format": "in vivo, mouse", "settings": "NOD mice with type 1 diabetes, 5 mg/kg SC every morning and evening for 14 days, pancreas on 14th day", "text": "as §4\nThe end of the tail of the experimental animals prepared above was wounded once a week and a drop of blood therefrom was measured for blood glucose levels using a glucometer (Roche, Accu-CHEK Performa). When the blood glucose levels were measured to be 250 mg/dL or more and the blood glucose levels remeasured on the third day thereafter was also 250 mg/dL or more, type 1 diabetes was considered to have occurred, and the experiment was conducted.\nTwo experimental animals with type 1 diabetes were selected as the treatment group of Example 1, and were subcutaneously (SC) administered with 100 μl of the peptide of Example 1 (5 mg/kg). The administration was performed every morning and evening for 14 days, and the blood glucose levels were measured using a glucometer. […] On the 14th day, one experimental animal, the blood glucose levels of which were measured to be less than 250 mg/dL, was selected as a normal group, and was used to compare the insulitis scores of experimental animals with type 1 diabetes and experimental animals without type 1 diabetes.\nAfter measurement of the blood glucose levels on the 14th day, the pancreas was removed from the experimental animals and fixed in 10% […] buffered formalin (10% NBF, Sigma, HT5011) to manufacture a paraffin block. […] For the treatment group of Example 1, the number of islets in two animals was measured, individual islets were classified depending on the stage of insulitis to thus determine the insulitis score, and the number of islets corresponding to each insulitis stage among the total number of islets was represented as a percentage. For the negative control group and the normal group, the insulitis scores were determined as in the treatment group of Example 1, after which the number of islets corresponding to each insulitis stage among the total number of islets was represented as a percentage. […]"}}, "data": [{"substance": "GAGAGY [Comparative Example 1]", "values": [{"measurement": "IFN-γ mRNA expression level compared to the negative control group (anti-CD28)", "setting": "IFN-γ", "value": "did not greatly change"}, {"measurement": "TGF-β1 mRNA expression level compared to the negative control group (anti-CD28)", "setting": "TGF-β1", "value": "did not greatly change"}, {"measurement": "TNF-α mRNA expression level compared to the negative control group (anti-CD28)", "setting": "TNF-α", "value": "did not greatly change"}]}, {"substance": "YGAGAG [Comparative Example 2]", "values": [{"measurement": "IFN-γ mRNA expression level compared to the negative control group (anti-CD28)", "setting": "IFN-γ", "value": "did not greatly change"}, {"measurement": "TGF-β1 mRNA expression level compared to the negative control group (anti-CD28)", "setting": "TGF-β1", "value": "did not greatly change"}, {"measurement": "TNF-α mRNA expression level compared to the negative control group (anti-CD28)", "setting": "TNF-α", "value": "increase"}]}, {"substance": "YGAGAGAGY [Example 1]", "values": [{"measurement": "IFN-γ mRNA expression level compared to the negative control group (anti-CD28)", "setting": "IFN-γ", "value": "reduced"}, {"measurement": "blood glucose levels", "setting": "[1]", "value": "decreased significantly and then remained in the normal range"}, {"measurement": "TGF-β1 mRNA expression level compared to the negative control group (anti-CD28)", "setting": "TGF-β1", "value": "increased"}, {"measurement": "percentage of islets in insulitis stage 3 compared to the negative control group", "setting": "[2]", "value": "decreased"}, {"measurement": "percentage of islets in stage 0 (no insulitis) compared to the negative control group", "setting": "[2]", "value": "approximately doubled"}, {"measurement": "percentage of islets in stage 0 compared to the normal group", "setting": "[2]", "value": "higher"}, {"measurement": "percentages of islets in insulitis stages 0-2 compared to the negative control group", "setting": "[2]", "value": "increased"}, {"measurement": "TNF-α mRNA expression level compared to the negative control group (anti-CD28)", "setting": "TNF-α", "value": "reduced"}]}]}
